According to patent US11274097B2, “2-(het)aryl-substituted condensed bicyclic heterocycle derivatives as pest control agents” (BAYER CROPSCIENCE AKTIENGESELLSCHAFT, priority 2014, dated 2022):
Values joined by “and” are separate entries in the source; they are usually repeats but may differ in a detail not shown here. Identical values can stand only once.

What was measured:
[1] = log P by HPLC on a reversed-phase column (C 18), EEC Directive 79/831 Annex V.A8; format: physicochemical; settings: 55° C.; for LOGP_HCOOH: acidic range, pH 2.7, 0.1% aqueous formic acid/acetonitrile; for LOGP_NEUTRAL: neutral range, pH 7.8, 0.001 molar aqueous ammonium hydrogencarbonate/acetonitrile
Experimental: The log P values are measured according to EEC Directive 79/831 Annex V.A8 by HPLC (high-performance liquid chromatography) on a reversed-phase column (C 18). Temperature: 55° C. The LC-MS determination in the acidic range is effected at pH 2.7 using 0.1% aqueous formic acid and acetonitrile (contains 0.1% formic acid) as eluents, linear gradient from 10% acetonitrile to 95% acetonitrile. Called log P (HCOOH) in the table. LC-MS determination in the neutral range is effected at pH 7.8 with 0.001 molar aqueous ammonium hydrogencarbonate solution and acetonitrile as eluents; linear gradient from 10% acetonitrile to 95% acetonitrile. Called log P (neutral) in the table. Calibration is effected with unbranched alkan-2-ones (having 3 to 16 carbon atoms) with known log P values (log P values determined on the basis of the retention times by linear interpolation between two successive alkanone s).

[2] = tested on: Myzus persicae; assay: Myzus persicae spray test (MYZUPE), bell pepper plants; format: in vivo; settings: application rate 100 ppm, after 6 days
Experimental: (§1) Myzus persicae—Spray Test (MYZUPE)
(§2) Solvent: 7 parts by weight of dimethylformamide
(§3) Emulsifier: alkylaryl poly glycol ether
(§4) To produce an appropriate active ingredient formulation, 1 part by weight of active ingredient is dissolved using the stated parts by weight of solvent and made up with water containing an emulsifier concentration of 1000 ppm until the desired concentration is attained. To produce further test concentrations, the preparation is diluted with emulsifier-containing water. If the addition of ammonium salts or/and penetrants is required, these are each added in a concentration of 1000 ppm to the formulation solution.
Bell pepper plants (Capsicum annuum) heavily infested by the green peach aphid (Myzus persicae) are treated by spraying with the active ingredient formulation in the desired concentration.
After 6 days, the kill in % is determined. 100% means that all the aphids have been killed; 0% means that no aphids have been killed.

[3] = tested on: Phaedon cochleariae; assay: Phaedon cochleariae spray test (PHAECO); format: in vivo; settings: larvae, after 7 days
Experimental: Phaedon cochleariae—Spray Test (PHAECO)
(§5) Solvent: 78.0 parts by weight of acetone • • 1.5 parts by weight of dimethylformamide
(§6) Emulsifier: alkylaryl polyglycol ether
as §4, with “water.” for “water. If the addition of ammonium salts or/and penetrants is required, these are each added in a concentration of 1000 ppm to the formulation solution.”
Discs of Chinese cabbage leaves (Brassica pekinensis) are sprayed with an active ingredient formulation of the desired concentration and, after drying, populated with larvae of the mustard beetle (Phaedon cochleariae).
After 7 days, the efficacy in % is determined. 100% means that all the beetle larvae have been killed; 0% means that no beetle larvae have been killed.

[4] = tested on: Myzus persicae; assay: Myzus persicae translaminar test (MYZUPE t); format: in vivo; settings: 14 dat
Experimental: Myzus persicae—Translaminar Test (MYZUPE t)
as §2, §3
(§7) To produce an appropriate active ingredient formulation, 1 part by weight of active ingredient is dissolved using the stated parts by weight of solvent and made up with water containing an emulsifier concentration of 1000 ppm until the desired concentration is attained. To produce further test concentrations, the preparation is diluted with emulsifier-containing water. In the event that addition of ammonium salts or/and penetrants (rapeseed oil methyl ester) is required, these are each pipetted in a concentration of 1000 ppm after the finished formulation solution has been diluted.
One-leaved bell pepper plants (Capsicum annuum) heavily infested by the green peach aphid (Myzus persicae) are treated by spraying the top side of the leaf with the active ingredient formulation in the desired concentration.
(§8) After the desired time, the kill in % is determined. 100% means that all the aphids have been killed and 0% means that none of the aphids have been killed.

[5] = tested on: Aphis gossypii; assay: Aphis gossypii translaminar test (APHIGO t); format: in vivo; settings: 2.4 g/ha, 7 dat
Experimental: Aphis gossypii—Translaminar Test (APHIGO t)
as §2, §6, §7
One-leaved cotton plants (Gossypium hirsutum) heavily infested by the cotton aphid (Aphis gossypii) are treated by spraying the top side of the leaf with the active ingredient formulation in the desired concentration.
as §8

[6] = tested on: Nephotettix cincticeps; assay: Nephotettix cincticeps test (NEPHCI); format: in vivo; settings: 0.16 ppm
Experimental: Nephotettix cincticeps Test (NEPHCI)
as §2, §6, §7
Rice plants (Oryza sativa, var. Balilla) are treated by spraying with the active ingredient formulation in the desired concentration and then populated with larvae of the green rice leafhopper (Nephotettix cincticeps).
After the desired time, the kill in % is determined. 100% means that all leafhoppers have been killed; 0% means that none of the leafhoppers have been killed.

[7] = tested on: Myzus persicae; assay: Myzus persicae contact test (MYZUPE c); format: in vivo; settings: 2.4 g/ha, 14 dat
Experimental: Myzus persicae—Contact Test (MYZUPE c)
as §2, §3, §7
One-leaved bell pepper plants (Capsicum annuum) heavily infested by the green peach aphid (Myzus persicae) are treated by spraying the underside of the leaf with the active ingredient formulation in the desired concentration.
as §8

[8] = tested on: Nilaparvata lugens; assay: Nilaparvata lugens test (NILALU); format: in vivo; settings: 4 ppm
Experimental: Nilaparvata lugens Test (NILALU)
as §2, §6, §7
Rice plants (Oryza sativa, var. Balilla) are treated by spraying with the active ingredient formulation in the desired concentration and then populated with L3 larvae of the brown planthopper (Nilaparvata lugens).
After the desired time, the feeding damage in % is determined. 100% means that no feeding damage is found; 0% means that the feeding damage to the treated plant corresponds to that of the untreated control.

[9] = tested on: Aphis gossypii; assay: Aphis gossypii contact test (APHIGO c); format: in vivo; settings: 2.4 g/ha, 7 dat
Experimental: Aphis gossypii—Contact Test (APHIGO c)
as §2, §6, §7
One-leaved cotton plants (Gossypium hirsutum) heavily infested by the cotton aphid (Aphis gossypii) are treated by spraying the underside of the leaf with the active ingredient formulation in the desired concentration.
as §8

[10] = tested on: Myzus persicae; assay: Myzus persicae spray test (MYZUPE), Chinese cabbage leaf discs; format: in vivo; settings: application rate 500 g/ha, after 6 days
Experimental: as §1
Solvent: 78 parts by weight of acetone • • 1.5 parts by weight of dimethylformamide
as §3
as §4, with “water.” for “water. If the addition of ammonium salts or/and penetrants is required, these are each added in a concentration of 1000 ppm to the formulation solution.”
Discs of Chinese cabbage leaves (Brassica pekinensis) infested by all stages of the green peach aphid (Myzus persicae) are sprayed with an active ingredient formulation of the desired concentration.
After 6 days, the efficacy in % is determined. 100% means that all the aphids have been killed; 0% means that none of the aphids have been killed.

[11] = tested on: Meloidogyne incognita; assay: Meloidogyne incognita test; format: in vivo; settings: application rate 20 ppm; lettuce; after 14 days
Experimental: Meloidogyne incognita Test Solvent: 125.0 parts by weight of acetone To produce a suitable active ingredient formulation, 1 part by weight of active ingredient is mixed with the stated amount of solvent and the concentrate is diluted with water to the desired concentration. Vessels are filled with sand, active ingredient solution, an egg/larvae suspension of the southern root-knot nematode (Meloidogyne incognita) and lettuce seeds. The lettuce seeds germinate and the plants develop. The galls develop on the roots. After 14 days, the nematicidal efficacy in % is determined by the formation of galls. 100% means that no galls were found; 0% means that the number of galls on the treated plants corresponds to the untreated control.

[12] = tested on: Spodoptera frugiperda; assay: Spodoptera frugiperda spray test (SPODFR); format: in vivo; settings: application rate 500 g/ha; maize leaf discs; after 7 days
Experimental: Spodoptera frugiperda—Spray Test (SPODFR)
as §5, §6
as §4, with “water.” for “water. If the addition of ammonium salts or/and penetrants is required, these are each added in a concentration of 1000 ppm to the formulation solution.”
Leaf discs of maize (Zea mays) are sprayed with an active ingredient formulation of the desired concentration and, after drying, populated with caterpillars of the armyworm (Spodoptera frugiperda).
After 7 days, the efficacy in % is determined. 100% means that all the caterpillars have been killed; 0% means that no caterpillars have been killed.

[13] = tested on: Tetranychus urticae; assay: Tetranychus urticae spray test, OP-resistant (TETRUR); format: in vivo; settings: application rate 500 g/ha; bean leaf discs; after 6 days
Experimental: Tetranychus urticae—Spray Test, OP-Resistant (TETRUR)
as §5, §6
as §4, with “water.” for “water. If the addition of ammonium salts or/and penetrants is required, these are each added in a concentration of 1000 ppm to the formulation solution.”
Discs of bean leaves (Phaseolus vulgaris) infested by all stages of the greenhouse red spider mite (Tetranychus urticae) are sprayed with an active ingredient formulation of the desired concentration.
After 6 days, the efficacy in % is determined. 100% means that all the spider mites have been killed; 0% means that none of the spider mites have been killed.

[14] = tested on: Lucilia cuprina; assay: Lucilia cuprina test (LUCICU); format: in vivo; settings: application rate 100 ppm; L1 larvae; after 2 days
Experimental: Lucilia cuprina Test (LUCICU) Solvent: dimethyl sulphoxide To produce an appropriate active ingredient formulation, 10 mg of active ingredient are mixed with 0.5 ml of dimethyl sulphoxide, and the concentrate is diluted with water to the desired concentration. About 20 L1 larvae of the Australian sheep blowfly (Lucilia cuprina) are transferred into a test vessel containing minced horsemeat and the active ingredient preparation of the desired concentration. After 2 days, the kill in % is determined. 100% means that all the larvae have been killed; 0% means that none of the larvae have been killed.

[15] = tested on: Ctenocephalides felis; assay: Ctenocephalides felis in vitro contact test; format: in vivo; settings: application rate 5 μg/cm^2; adult cat fleas; after 48 h
Experimental: Ctenocephalides felis—In Vitro Contact Test
For the coating of the test tubes, 9 mg of active ingredient are first dissolved in 1 ml of acetone p.a. and then diluted to the desired concentration with acetone p.a. 250 μl of the solution are distributed homogeneously on the inner walls and base of a 25 ml test tube by turning and rocking on an orbital shaker (rocking rotation at 30 rpm for 2 h). With 900 ppm active ingredient solution and internal surface 44.7 cm^2, given homogeneous distribution, an area-based dose of 5 μg/cm^2 is achieved.
After the solvent has evaporated off, the tubes are populated with 5-10 adult cat fleas (Ctenocephalides felis), sealed with a perforated plastic lid and incubated in a horizontal position at room temperature and ambient humidity. After 48 h, efficacy is determined. To this end, the test tubes are stood upright and the fleas are knocked to the base of the tube. Fleas which remain motionless at the base or move in an uncoordinated manner are considered to be dead or moribund.
100% efficacy means that all the fleas were dead or moribund. 0% efficacy means that no fleas were harmed.

## Cn1c(-c2ccc(Cl)cc2S(C)(=O)=O)nc2cc(C(F)(F)F)ncc21 [Example I-11]
[1]
  LOGP_HCOOH: 2.39
  LOGP_NEUTRAL: 2.34
[2]
  efficacy (kill): 97%
[3]; application rate 100 g/ha
  efficacy: 100%

## CCS(=O)(=O)c1cc(C(F)(F)F)cnc1-c1nc2cc(C(F)(F)F)cnc2n1C [Ex. 5 known from WO2013018928]
[4]; 2.4 g/ha
  % efficacy: 0%
[4]; 12 g/ha
  % efficacy: 0%
[5]
  % efficacy: 0%
[6]; 14 dat
  % efficacy: 0%
[6]; 21 dat
  % efficacy: 0%
[6]; 34 dat
  % efficacy: 0%
[7]
  % efficacy: 50%
[8]; 21 dat
  % efficacy: 35%
[8]; 28 dat
  % efficacy: 20%
[9]
  % efficacy: 15%

## CCS(=O)(=O)c1cccnc1-c1nc2cc(C(F)(F)C(F)(F)F)ncc2n1C [Example I-68]
[10]
  efficacy: 90%
[11]
  nematicidal efficacy (formation of galls): 100%
[1]
  LOGP_HCOOH: 2.50
  LOGP_NEUTRAL: 2.46
[12]
  efficacy: 100%
[3]; application rate 500 g/ha
  efficacy: 100%
[13]
  efficacy: 100%

## CCS(=O)(=O)c1ccccc1-c1nc2cc(C(F)(F)F)ncc2n1C [Example I-18]
[10]
  efficacy: 100% and 90%
[1]
  LOGP_HCOOH: 2.13
  LOGP_NEUTRAL: 2.11
[14]
  efficacy (kill): 100%
[3]; application rate 500 g/ha
  efficacy: 100%
[15]
  efficacy: 100%
